According to publication PMC10099810, “Rational Design and Synthesis of D‐galactosyl Lysophospholipids as Selective Substrates and non‐ATP‐competitive Inhibitors of Phosphatidylinositol Phosphate Kinases” (Chemistry (Weinheim an Der Bergstrasse, Germany), 2022):
One block for each molecule: values may come before it.

What was measured:
[1] = target: T1, zPIP5Kα (zebrafish PIP5Kα) (Danio rerio, UniProt Q503I3); experiment: […]-ATP lipid kinase assay with TLC, diC16-PI4P substrate; ATP and PI4P competition; type: biochemical
T1 construct: gene pip5k1aa; zebrafish PIP5Kα with a C-terminal His-tag

[2] = target: T2, 5′ AMP-activated protein kinase α1 (AMPKα1) (Homo sapiens, UniProt Q13131); experiment: KinaseProfiler activity screen, […] inhibition at […]; type: biochemical
T2 construct: gene PRKAA1
T2 sequence (Q13131 whole entry): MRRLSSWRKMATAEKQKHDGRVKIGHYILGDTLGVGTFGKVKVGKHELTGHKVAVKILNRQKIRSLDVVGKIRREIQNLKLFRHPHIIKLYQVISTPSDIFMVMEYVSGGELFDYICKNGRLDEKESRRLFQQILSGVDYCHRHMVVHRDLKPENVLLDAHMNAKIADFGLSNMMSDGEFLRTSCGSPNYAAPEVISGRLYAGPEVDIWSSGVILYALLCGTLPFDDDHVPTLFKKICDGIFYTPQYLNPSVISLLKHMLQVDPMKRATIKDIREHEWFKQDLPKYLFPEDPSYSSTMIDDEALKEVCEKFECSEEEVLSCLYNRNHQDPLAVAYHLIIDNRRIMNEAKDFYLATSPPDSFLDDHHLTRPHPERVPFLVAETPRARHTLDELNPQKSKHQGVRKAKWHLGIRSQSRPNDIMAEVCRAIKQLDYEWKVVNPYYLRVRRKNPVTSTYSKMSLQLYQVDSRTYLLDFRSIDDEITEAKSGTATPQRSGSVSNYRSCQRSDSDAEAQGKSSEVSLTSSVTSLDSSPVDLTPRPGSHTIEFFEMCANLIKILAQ
T2 sequence (Q9Y478 2-270 partner): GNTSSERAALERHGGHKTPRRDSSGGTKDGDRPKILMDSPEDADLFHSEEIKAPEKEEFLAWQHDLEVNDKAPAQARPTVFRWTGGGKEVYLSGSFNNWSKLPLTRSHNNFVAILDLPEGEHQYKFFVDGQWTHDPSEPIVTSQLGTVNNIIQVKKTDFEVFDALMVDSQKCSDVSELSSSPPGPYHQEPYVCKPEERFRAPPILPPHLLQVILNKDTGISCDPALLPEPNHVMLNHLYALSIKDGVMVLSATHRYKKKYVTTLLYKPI
T2 sequence (P54619 whole entry partner): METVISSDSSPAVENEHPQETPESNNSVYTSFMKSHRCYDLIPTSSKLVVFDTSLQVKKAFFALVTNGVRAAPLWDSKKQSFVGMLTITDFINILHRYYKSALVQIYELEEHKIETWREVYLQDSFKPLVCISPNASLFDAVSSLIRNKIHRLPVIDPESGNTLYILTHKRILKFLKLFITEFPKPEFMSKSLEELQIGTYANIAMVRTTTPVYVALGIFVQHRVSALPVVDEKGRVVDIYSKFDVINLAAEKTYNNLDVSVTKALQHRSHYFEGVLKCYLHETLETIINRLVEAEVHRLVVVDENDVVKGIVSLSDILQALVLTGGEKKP

hPIKfyve (human PIKfyve) = target: T3, hPIKfyve (human PIKfyve) (Homo sapiens, UniProt Q9Y2I7); experiment: […]-ATP lipid kinase assay with TLC, diC16-PI3P substrate; type: biochemical
T3 construct: full length human PIKfyve with an N-terminal FLAG tag
T3 sequence (Q9Y2I7 2-2098): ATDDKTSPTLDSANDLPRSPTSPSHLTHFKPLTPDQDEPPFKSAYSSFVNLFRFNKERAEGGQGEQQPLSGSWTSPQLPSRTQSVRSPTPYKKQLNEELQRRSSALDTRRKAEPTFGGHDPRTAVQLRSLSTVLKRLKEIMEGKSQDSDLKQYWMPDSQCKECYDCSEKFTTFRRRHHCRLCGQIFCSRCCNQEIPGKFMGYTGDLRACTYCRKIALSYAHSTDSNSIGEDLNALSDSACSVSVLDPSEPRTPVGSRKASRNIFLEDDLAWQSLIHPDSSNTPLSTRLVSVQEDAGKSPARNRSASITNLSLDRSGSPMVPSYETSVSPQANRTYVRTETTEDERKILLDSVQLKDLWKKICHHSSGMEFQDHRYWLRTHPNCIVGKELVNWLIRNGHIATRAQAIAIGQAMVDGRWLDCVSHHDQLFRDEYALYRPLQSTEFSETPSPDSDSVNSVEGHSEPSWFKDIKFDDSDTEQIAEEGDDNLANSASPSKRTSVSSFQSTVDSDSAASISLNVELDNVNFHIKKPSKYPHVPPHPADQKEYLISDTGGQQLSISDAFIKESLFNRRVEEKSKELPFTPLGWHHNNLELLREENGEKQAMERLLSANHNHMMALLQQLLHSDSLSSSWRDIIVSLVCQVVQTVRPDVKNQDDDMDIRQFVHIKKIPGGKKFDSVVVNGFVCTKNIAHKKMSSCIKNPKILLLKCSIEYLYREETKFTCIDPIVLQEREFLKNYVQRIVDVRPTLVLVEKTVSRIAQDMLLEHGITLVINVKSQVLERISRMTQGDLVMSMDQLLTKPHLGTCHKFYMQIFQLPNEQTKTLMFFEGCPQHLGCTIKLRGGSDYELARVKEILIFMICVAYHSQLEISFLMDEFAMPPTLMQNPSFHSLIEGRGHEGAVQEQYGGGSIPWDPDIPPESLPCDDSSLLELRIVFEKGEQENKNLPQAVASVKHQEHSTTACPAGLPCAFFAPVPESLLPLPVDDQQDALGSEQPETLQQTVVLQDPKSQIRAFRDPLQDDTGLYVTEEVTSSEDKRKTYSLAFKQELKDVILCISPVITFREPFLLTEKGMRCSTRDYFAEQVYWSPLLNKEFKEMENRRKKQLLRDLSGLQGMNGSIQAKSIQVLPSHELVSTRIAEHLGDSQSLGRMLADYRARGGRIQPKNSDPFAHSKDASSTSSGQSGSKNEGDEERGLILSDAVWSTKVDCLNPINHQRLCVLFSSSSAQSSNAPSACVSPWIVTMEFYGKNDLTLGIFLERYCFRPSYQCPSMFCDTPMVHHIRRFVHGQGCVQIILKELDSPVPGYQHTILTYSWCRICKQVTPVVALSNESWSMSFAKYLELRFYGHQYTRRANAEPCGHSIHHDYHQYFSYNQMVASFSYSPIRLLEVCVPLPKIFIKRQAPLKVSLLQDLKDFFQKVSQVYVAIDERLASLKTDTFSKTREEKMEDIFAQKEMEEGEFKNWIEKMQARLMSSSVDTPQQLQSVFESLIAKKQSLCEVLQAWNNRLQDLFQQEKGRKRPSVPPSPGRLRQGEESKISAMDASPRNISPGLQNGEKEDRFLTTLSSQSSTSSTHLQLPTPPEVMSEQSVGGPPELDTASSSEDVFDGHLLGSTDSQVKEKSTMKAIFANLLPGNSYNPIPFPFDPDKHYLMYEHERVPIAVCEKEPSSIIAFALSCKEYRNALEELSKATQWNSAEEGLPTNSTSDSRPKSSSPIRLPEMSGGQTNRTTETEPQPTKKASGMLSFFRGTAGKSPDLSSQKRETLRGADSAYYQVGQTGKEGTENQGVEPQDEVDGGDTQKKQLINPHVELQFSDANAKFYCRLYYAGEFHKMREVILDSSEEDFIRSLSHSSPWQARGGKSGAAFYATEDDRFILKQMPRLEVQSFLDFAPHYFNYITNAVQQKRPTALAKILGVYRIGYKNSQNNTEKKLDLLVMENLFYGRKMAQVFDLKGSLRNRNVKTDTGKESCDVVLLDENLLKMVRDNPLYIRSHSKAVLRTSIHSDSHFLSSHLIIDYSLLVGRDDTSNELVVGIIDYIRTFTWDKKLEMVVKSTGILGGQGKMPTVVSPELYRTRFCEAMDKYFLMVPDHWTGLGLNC

purified protein = substrate: CCCCCCCCCCCCCCCC(=O)NCCOP(=O)(O)OC[C@H]1OC(O)[C@H](OP(=O)(O)O)[C@@H](O)[C@H]1O; experiment: purified protein; type: biochemical, Danio rerio; settings: Mg2+, phosphorylated at the anomeric OH

IC50 [1]: ~15 µM
inhibition at 20 µM [2]: 50%
IC50 (hPIKfyve (human PIKfyve)): 6.2 µM
Molecule: CCCCCCCCCCCCCCCC(=O)NCCOP(=O)(O)OC[C@H]1O[C@@H](OC)[C@H](OP(=O)(O)O)[C@H]2OC(C)(C)O[C@H]21 [compound 6]

B1: zPIP5Kα (zebrafish PIP5Kα) (Danio rerio) (protein)
chain: MAAPAVVSTDGADSSTPGNRKMASSEGLSTLGSSQTNKKTLGHRGIDPTGETTYKKTTSSALKGAIQLGITHSVGSLSQKPERDVLMQDFEVVESIFFPSQGSSSTPGHHHGDFKFKTYAPIAFRYFREMFGIRPDDYLYSLCNEPLIELSNPGASGSLFYVSSDDEFIIKTVQHKEAEFLQTLLPGYFMNLNQNMRTLLPKFYGLYCVQADGKNIRIVVMNNLLPRAVPMHLKFDLKGSTYKRRASPKERSKGVPTYKDLDFMQDMPEGILLENDHYTALSRTMQRDCRVLQSFKIMDYSLLVGIHILHRAGEEASTAVPDTQKKGQGQKPLYCTAIESIQGESKSKTSPQPYESMGGIPAFNSKGERLLVFIGIIDILQSYRLVKKLEHSWKALLHDGDTVSVHRPSFYADRFQKFMCSTVFRKSQLKTSPSKRSRLGPVSAGKKSNIAVSGQSHQQSLPVAAELTQSQLWSSEDPQGDSGMQTARPDLLPQQVAEDDITSSSADTTLSATSLVNSRLSTNTPVLSRSSVAGHSSEESLDMDVISLSEIVPQTSTSE
notes: zebrafish PIP5Kα with a C-terminal His-tag
Km (purified protein): 10 ± 1.3 µM
